Measured values published in the supplement of paper PMC10307832.

What was measured:
Assay in all cases: relative viability (nuclei count vs DMSO), 5 days (fraction); higher = more cells survive
EKVX = tested on: EKVX
In short: (§1)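 Relative viability is defined as nuclei in treated wells over nuclei in vehicle wells. Duplicate plates were run and medians reported. Lung cancer cell lines in 1536-well plates were dosed by pin tool one day after seeding, with one drug or with a fixed anchor-drug dose plus five library-drug doses (not always all listed) in √10 steps, and nuclei were counted after 5 days.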

NCI-H1648 = tested on: NCI-H1648
In short: as §1

RERF-LC-KJ = tested on: RERF-LC-KJ
In short: as §1

NCI-H1993 = tested on: NCI-H1993
In short: as §1

NCI-H2085 = tested on: NCI-H2085
In short: as §1

NCI-H2126 = tested on: NCI-H2126
In short: as §1

HCC-44 = tested on: HCC-44
In short: as §1

ABC-1 = tested on: ABC-1
In short: as §1

With `Cc1sc2c(c1C)C(c1ccc(Cl)cc1)=N[C@@H](CC(=O)OC(C)(C)C)c1nnc(C)n1-2` [JQ1] + CC(=O)Nc1cccc(-n2c(=O)n(C3CC3)c(=O)c3c(Nc4ccc(I)cc4F)n(C)c(=O)c(C)c32)c1 [Trametinib] (partner 0.02 µM) the relative viability (EKVX; first compound 0.04 µM) was 0.286, the relative viability (EKVX; first compound 0.1265 µM) was 0.38 and the relative viability (EKVX; first compound 0.4 µM) was 0.366. The relative viability (EKVX; first compound 1.265 µM) was 0.432, the relative viability (EKVX; first compound 4 µM) was 0.271 and the relative viability (NCI-H1648; first compound 0.04 µM) was 0.432. It also gave a relative viability (NCI-H1648; first compound 0.1265 µM) of 0.473, a relative viability (NCI-H1648; first compound 0.4 µM) of 0.337 and a relative viability (NCI-H1648; first compound 1.265 µM) of 0.303. The relative viability (NCI-H1648; first compound 4 µM) was 0.245, the relative viability (RERF-LC-KJ; first compound 0.04 µM) was 0.907 and the relative viability (RERF-LC-KJ; first compound 0.1265 µM) was 0.803. It also gave a relative viability (RERF-LC-KJ; first compound 0.4 µM) of 0.817, a relative viability (RERF-LC-KJ; first compound 1.265 µM) of 0.532 and a relative viability (RERF-LC-KJ; first compound 4 µM) of 0.449. For the same compound, the relative viability (NCI-H1993; first compound 0.04 µM) was 0.465, the relative viability (NCI-H1993; first compound 0.1265 µM) was 0.461 and the relative viability (NCI-H1993; first compound 0.4 µM) was 0.541. It also gave a relative viability (NCI-H1993; first compound 1.265 µM) of 0.542, a relative viability (NCI-H1993; first compound 4 µM) of 0.57 and a relative viability (NCI-H2085; first compound 0.04 µM) of 0.376. It also gave a relative viability (NCI-H2085; first compound 0.1265 µM) of 0.551, a relative viability (NCI-H2085; first compound 0.4 µM) of 0.407 and a relative viability (NCI-H2085; first compound 1.265 µM) of 0.248. For the same compound, the relative viability (NCI-H2085; first compound 4 µM) was 0.239, the relative viability (NCI-H2126; first compound 0.04 µM) was 0.521 and the relative viability (NCI-H2126; first compound 0.1265 µM) was 0.549. It also gave a relative viability (NCI-H2126; first compound 0.4 µM) of 0.486, a relative viability (NCI-H2126; first compound 1.265 µM) of 0.368 and a relative viability (NCI-H2126; first compound 4 µM) of 0.416. The relative viability (HCC-44; first compound 0.04 µM) was 1.02, the relative viability (HCC-44; first compound 0.1265 µM) was 1.09 and the relative viability (HCC-44; first compound 0.4 µM) was 0.766. The relative viability (HCC-44; first compound 1.265 µM) was 0.649 and the relative viability (HCC-44; first compound 4 µM) was 0.493.

In the case of `Cc1sc2c(c1C)C(c1ccc(Cl)cc1)=N[C@@H](CC(=O)OC(C)(C)C)c1nnc(C)n1-2` [JQ1] + CC(=O)c1c(C)c2cnc(Nc3ccc(N4CCNCC4)cn3)nc2n(C2CCCC2)c1=O [Palbociclib] (partner 0.5 µM), the relative viability (EKVX; first compound 0.04 µM) is reported as 0.429, the relative viability (EKVX; first compound 0.1265 µM) is reported as 0.34 and the relative viability (EKVX; first compound 0.4 µM) is reported as 0.372. The relative viability (EKVX; first compound 1.265 µM) was 0.368, the relative viability (EKVX; first compound 4 µM) was 0.314 and the relative viability (NCI-H1648; first compound 0.04 µM) was 0.259. It also gave a relative viability (NCI-H1648; first compound 0.1265 µM) of 0.303, a relative viability (NCI-H1648; first compound 0.4 µM) of 0.332 and a relative viability (NCI-H1648; first compound 1.265 µM) of 0.358. It also gave a relative viability (NCI-H1648; first compound 4 µM) of 0.309, a relative viability (RERF-LC-KJ; first compound 0.04 µM) of 1.13 and a relative viability (RERF-LC-KJ; first compound 0.1265 µM) of 0.868. It also gave a relative viability (RERF-LC-KJ; first compound 0.4 µM) of 0.887, a relative viability (RERF-LC-KJ; first compound 1.265 µM) of 0.254 and a relative viability (RERF-LC-KJ; first compound 4 µM) of 0.246. For the same compound, the relative viability (NCI-H1993; first compound 0.04 µM) was 0.772, the relative viability (NCI-H1993; first compound 0.1265 µM) was 0.734 and the relative viability (NCI-H1993; first compound 0.4 µM) was 0.613. It also gave a relative viability (NCI-H1993; first compound 1.265 µM) of 0.613, a relative viability (NCI-H1993; first compound 4 µM) of 0.714 and a relative viability (ABC-1; first compound 0.04 µM) of 0.701. It also gave a relative viability (ABC-1; first compound 0.1265 µM) of 0.479, a relative viability (ABC-1; first compound 0.4 µM) of 0.44 and a relative viability (ABC-1; first compound 1.265 µM) of 0.451. For the same compound, the relative viability (ABC-1; first compound 4 µM) was 0.334, the relative viability (NCI-H2085; first compound 0.04 µM) was 0.458 and the relative viability (NCI-H2085; first compound 0.1265 µM) was 0.427. The relative viability (NCI-H2085; first compound 0.4 µM) was 0.508, the relative viability (NCI-H2085; first compound 1.265 µM) was 0.418 and the relative viability (NCI-H2085; first compound 4 µM) was 0.462. The relative viability (NCI-H2126; first compound 0.04 µM) was 0.345, the relative viability (NCI-H2126; first compound 0.1265 µM) was 0.401 and the relative viability (NCI-H2126; first compound 0.4 µM) was 0.368. It also gave a relative viability (NCI-H2126; first compound 1.265 µM) of 0.348, a relative viability (NCI-H2126; first compound 4 µM) of 0.37 and a relative viability (HCC-44; first compound 0.04 µM) of 0.96. The relative viability (HCC-44; first compound 0.1265 µM) was 0.942, the relative viability (HCC-44; first compound 0.4 µM) was 1.11 and the relative viability (HCC-44; first compound 1.265 µM) was 0.978. The relative viability (HCC-44; first compound 4 µM) was 0.728.

`Cc1sc2c(c1C)C(c1ccc(Cl)cc1)=N[C@@H](CC(=O)OC(C)(C)C)c1nnc(C)n1-2` [JQ1] + Nc1nc2[nH]cc(CCc3ccc(C(=O)N[C@@H](CCC(=O)O)C(=O)O)cc3)c2c(=O)[nH]1 [Pemetrexed] (partner 0.2 µM) showed a relative viability (EKVX; first compound 0.04 µM) of 0.351, a relative viability (EKVX; first compound 0.1265 µM) of 0.396 and a relative viability (EKVX; first compound 0.4 µM) of 0.304. The relative viability (EKVX; first compound 1.265 µM) was 0.362, the relative viability (EKVX; first compound 4 µM) was 0.264 and the relative viability (NCI-H1648; first compound 0.04 µM) was 0.726. It also gave a relative viability (NCI-H1648; first compound 0.1265 µM) of 0.817, a relative viability (NCI-H1648; first compound 0.4 µM) of 0.683 and a relative viability (NCI-H1648; first compound 1.265 µM) of 0.54. For the same compound, the relative viability (NCI-H1648; first compound 4 µM) was 0.258, the relative viability (RERF-LC-KJ; first compound 0.04 µM) was 0.487 and the relative viability (RERF-LC-KJ; first compound 0.1265 µM) was 0.481. It also gave a relative viability (RERF-LC-KJ; first compound 0.4 µM) of 0.46, a relative viability (RERF-LC-KJ; first compound 1.265 µM) of 0.33 and a relative viability (RERF-LC-KJ; first compound 4 µM) of 0.275. The relative viability (NCI-H1993; first compound 0.04 µM) was 0.592, the relative viability (NCI-H1993; first compound 0.1265 µM) was 0.649 and the relative viability (NCI-H1993; first compound 0.4 µM) was 0.583. For the same compound, the relative viability (NCI-H1993; first compound 1.265 µM) was 0.478, the relative viability (NCI-H1993; first compound 4 µM) was 0.49 and the relative viability (NCI-H2085; first compound 0.04 µM) was 0.738. The relative viability (NCI-H2085; first compound 0.1265 µM) was 0.721, the relative viability (NCI-H2085; first compound 0.4 µM) was 0.668 and the relative viability (NCI-H2085; first compound 1.265 µM) was 0.403. The relative viability (NCI-H2085; first compound 4 µM) was 0.374, the relative viability (NCI-H2126; first compound 0.04 µM) was 0.71 and the relative viability (NCI-H2126; first compound 0.1265 µM) was 0.721. The relative viability (NCI-H2126; first compound 0.4 µM) was 0.624, the relative viability (NCI-H2126; first compound 1.265 µM) was 0.519 and the relative viability (NCI-H2126; first compound 4 µM) was 0.413. The relative viability (HCC-44; first compound 0.04 µM) was 0.59, the relative viability (HCC-44; first compound 0.1265 µM) was 0.617 and the relative viability (HCC-44; first compound 0.4 µM) was 0.692. It also gave a relative viability (HCC-44; first compound 1.265 µM) of 0.58 and a relative viability (HCC-44; first compound 4 µM) of 0.444.
